Data taken from patent US10899754B2, “Modulators of indoleamine 2,3-dioxygenase” (GLAXOSMITHKLINE INTELLECTUAL PROPERTY DEVELOPMENT LIMITED, priority 2016, dated 2021).

Legend:
[1] = tested on: human epithelial HeLa cells; assay: HeLa cytotoxicity assay (CellTiter-Glo); type: cell-based; settings: pCC50
Experimental: (§1) Compounds of the present invention were tested via high-throughput cellular assays utilizing detection of kynurenine via mass spectrometry and cytotoxicity as end-points. For the mass spectrometry and cytotoxicity assays, human epithelial HeLa cells (CCL-2; ATCC®, Manassas, Va.) were stimulated with human interferon-γ (IFN-γ) (Sigma-Aldrich Corporation, St. Louis, Mo.) to induce the expression of indoleamine 2, 3-dioxygenase (IDO1). Compounds with IDO1 inhibitory properties decreased the amount of kynurenine produced by the cells via the tryptophan catabolic pathway. Cellular toxicity due to the effect of compound treatment was measured using CellTiter-Glo® reagent (CTG) (Promega Corporation, Madison, Wis.), which is based on luminescent detection of ATP, an indicator of metabolically active cells.
(§2) In preparation for the assays, test compounds were serially diluted 3-fold in DMSO from a typical top concentration of 1 mM or 5 mM and plated at 0.5 μL in 384-well, polystyrene, clear bottom, tissue culture treated plates with lids (Greiner Bio-One, Kremsmünster, Austria) to generate 11-point dose response curves. Low control wells (0% kynurenine or 100% cytotoxicity) contained either 0.5 μL of DMSO in the presence of unstimulated (−IFN-γ) HeLa cells for the mass spectrometry assay or 0.5 μL of DMSO in the absence of cells for the cytotoxicity assay, and high control wells (100% kynurenine or 0% cytotoxicity) contained 0.5 μL of DMSO in the presence of stimulated (+IFN-γ) HeLa cells for both the mass spectrometry and cytotoxicity assays.
(§3) Frozen stocks of HeLa cells were washed and recovered in DMEM high glucose medium with HEPES (Thermo Fisher Scientific, Inc., Waltham, Mass.) supplemented with 10% v/v certified fetal bovine serum (FBS) (Thermo Fisher Scientific, Inc., Waltham, Mass.), and 1× penicillin-streptomycin antibiotic solution (Thermo Fisher Scientific, Inc., Waltham, Mass.). The cells were diluted to 100,000 cells/mL in the supplemented DMEM medium. 50 μL of either the cell suspension, for the mass spectrometry assay, or medium alone, for the cytotoxicity assay, were added to the low control wells, on the previously prepared 384-well compound plates, resulting in 5,000 cells/well or 0 cells/well respectively. IFN-γ was added to the remaining cell suspension at a final concentration of 10 nM, and 50 μL of the stimulated cells were added to all remaining wells on the 384-well compound plates. The plates, with lids, were then placed in a 37° C., 5% CO2 humidified incubator for 2 days.
(§4) Following incubation, the 384-well plates were removed from the incubator and allowed to equilibrate to room temperature for 30 minutes. For the cytotoxicity assay, CellTiter-Glo® was prepared according to the manufacturer's instructions, and 10 μL were added to each plate well. After a twenty minute incubation at room temperature, luminescence was read on an EnVision® Multilabel Reader (PerkinElmer Inc., Waltham, Mass.). For the mass spectrometry assay, 10 μL of supernatant from each well of the compound-treated plates were added to 40 μL of acetonitrile, containing 10 μM of an internal standard for normalization, in 384-well, polypropylene, V-bottom plates (Greiner Bio-One, Kremsmünster, Austria) to extract the organic analytes. Following centrifugation at 2000 rpm for 10 minutes, 10 μL from each well of the acetonitrile extraction plates were added to 90 μL of sterile, distilled H2O in 384-well, polypropylene, V-bottom plates for analysis of kynurenine and the internal standard on the RapidFire 300 (Agilent Technologies, Santa Clara, Calif.) and 4000 QTRAP MS (SCIEX, Framingham, Mass.). MS data were integrated using Agilent Technologies' RapidFire Integrator software, and data were normalized for analysis as a ratio of kynurenine to the internal standard. […]

[2] = target: indoleamine 2, 3-dioxygenase (IDO1) (Homo sapiens, UniProt P14902); assay: IDO1 HeLa RapidFire MS assay (kynurenine detection by mass spectrometry); type: cell-based; parameters: to induce the expression of indoleamine 2, 3-dioxygenase (IDO1); settings: HeLa cells, pIC50, read-out: IDO1_HELA_PXC50 (converted)
Sequence of indoleamine 2, 3-dioxygenase (IDO1) (P14902 whole entry): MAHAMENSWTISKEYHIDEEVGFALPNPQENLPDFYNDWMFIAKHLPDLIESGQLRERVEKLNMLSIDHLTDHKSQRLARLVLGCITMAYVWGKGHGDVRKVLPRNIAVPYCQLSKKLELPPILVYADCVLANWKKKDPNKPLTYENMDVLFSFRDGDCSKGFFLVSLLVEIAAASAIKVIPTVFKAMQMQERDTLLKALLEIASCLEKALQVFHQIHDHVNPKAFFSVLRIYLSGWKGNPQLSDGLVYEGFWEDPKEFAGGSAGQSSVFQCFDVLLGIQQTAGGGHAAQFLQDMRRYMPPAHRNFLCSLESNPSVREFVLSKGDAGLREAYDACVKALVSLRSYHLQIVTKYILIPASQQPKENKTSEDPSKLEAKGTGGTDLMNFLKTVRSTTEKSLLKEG
Experimental: IDO1 HeLa RapidFire MS Assay
as §1, §2, §3, §4

SMILES	IC50 [2] [µM]	HELA_IDO1_TOX_PXC50 [1]
CC(C)CN(c1ccc(-c2cnn(C)c2C(=O)O)cc1Nc1nc2ccccc2o1)C1CCCCC1 [example 178, 4-{3-[(1,3-benzoxazol-2-yl)amino]-4-[cyclohexyl(2-methylpropyl)amino]phenyl}-1-methyl-1H-pyrazole-5-carboxylic acid]	3.16	<5
CC(C)CN(c1ccc([C@H](C)CC(=O)O)cc1NC(C)C)C1CCCCC1 [example 180, (3R)-3-{4-[cyclohexyl(2-methylpropyl)amino]-3-[(propan-2-yl)amino]phenyl}butanoic acid]	3.98	<5
CC(C)CN(c1ccc([C@H](C)CC(=O)O)cc1NC1CCC(C)(C)CC1)C1CCCCC1 [example 182, (3R)-3-{4-[cyclohexyl(2-methylpropyl)amino]-3-[(4,4-dimethylcyclohexyl)ami-no]phenyl}butanoic acid]	5.01	<5
CC(C)CN(c1ccc([C@H](C)CC(=O)O)cc1NC1CCC[C@@H](C)C1)C1CCCCC1 (stereo partly drawn) [example 184, (3R)-3-{4-[cyclohexyl(2-methylpropyl)amino]-3-{[(3R)-3-methylcyclohexyl]amino}phenyl}butanoic acid]	0.501	<5
CC(C)CN(c1ccc([C@H](C)CC(=O)O)cc1NC(C)CCO)C1CCCCC1 (stereo partly drawn) [example 185, (3R)-3-{4-[cyclohexyl(2-methylpropyl)amino]-3-[(4-hydroxybutan-2-yl)amino]phenyl}butanoic acid]	1.58	<5
Cc1nnc(Nc2cc([C@H](C)CC(=O)O)ccc2N(CC(C)C)CC(C)C)s1 [example 186, (3R)-3-{4-[bis(2-methylpropyl)amino]-3-[(5-methyl-1,3,4-thiadiazol-2-yl)amino]phenyl}butanoic acid]	0.0794	<5
CC(=O)Nc1nnc(Nc2cc(C(C)CC(=O)O)ccc2N(CC(C)C)CC(C)C)s1 (stereo not drawn) [example 187, 3-{4-[bis(2-methylpropyl)amino]-3-[(5-acetamido-1,3,4-thiadiazol-2-yl)amino]phenyl}butanoic acid]	> 10	<5
COCc1nnc(Nc2cc(C(C)CC(=O)O)ccc2N(CC(C)C)CC(C)C)s1 (stereo not drawn) [example 188, 3-{4-[bis(2-methylpropyl)amino]-3-{[5-(methoxymethyl)-1,3,4-thiadiazol-2-yl]amino}phenyl}butanoic acid]	0.126	<5
COCc1ncc(Nc2cc(C(C)CC(=O)O)ccc2N(CC(C)C)CC(C)C)s1 (stereo not drawn) [example 189, 3-{4-[bis(2-methylpropyl)amino]-3-{[2-(methoxymethyl)-1,3-thiazol-5-yl]amino}phenyl}butanoic acid]	0.2	<5
COCc1nnc(Nc2cc([C@H](C)CC(=O)O)ccc2N(CC(C)C)CC(C)C)[nH]1 [example 190, (3R)-3-{4-[bis(2-methylpropyl)amino]-3-{[5-(methoxymethyl)-4H-1,2,4-triazol-3-yl]amino}phenyl}butanoic acid]	0.0794	<5
COCc1ncc(Nc2cc(C(C)CC(=O)O)ccc2N(CC(C)C)CC(C)C)o1 (stereo not drawn) [example 191, 3-{4-[bis(2-methylpropyl)amino]-3-{[2-(methoxymethyl)-1,3-oxazol-5-yl]amino]phenyl}butanoic acid]	2	<5

More lines, main results first:

IC50 [2] [µM]	SMILES	HELA_IDO1_TOX_PXC50 [1]
5.01	CC(C)CN(CC(C)C)c1ccc(C(C)CC(=O)O)cc1Nc1nnc(NS(C)(=O)=O)s1 (stereo not drawn) [example 192, 3-{4-[bis(2-methylpropyl)amino]-3-[(5-methanesulfonamido-1,3,4-thiadiazol-2-yl)amino]phenyl}butanoic acid]	<5
0.1	COCc1ccc(Nc2cc(C(C)CC(=O)O)ccc2N(CC(C)C)CC(C)C)nc1 (stereo not drawn) [example 193, 3-{4-[bis(2-methylpropyl)amino]-3-{[5-(methoxymethyl)pyridin-2-yl]amino}phenyl}butanoic acid]	<5
0.2	CC(C)CN(CC(C)C)c1ccc(C(C)CC(=O)O)cc1Nc1ccc(CO)cn1 (stereo not drawn) [example 194, 3-{4-[bis(2-methylpropyl)amino]-3-{[5-(hydroxymethyl)pyridin-2-yl]amino}phenyl}butanoic acid]	<5
3.16	CC(C)CN(CC(C)C)c1ccc(C(C)CC(=O)O)cc1Nc1nnc(CC(N)=O)s1 (stereo not drawn) [example 195, 3-{4-[bis(2-methylpropyl)amino]-3-{[5-(carbamoylmethyl)-1,3,4-thiadiazol-2-yl]amino}phenyl}butanoic acid]	<5
0.158	CC(C)CN(CC(C)C)c1ccc(C(C)CC(=O)O)cc1Nc1nncs1 (stereo not drawn) [example 196, 3-{4-[bis(2-methylpropyl)amino]-3-[(1,3,4-thiadiazol-2-yl)amino]phenyl}butanoic acid]	<5
> 10	CC(C)CN(CC(C)C)c1ccc(C(C)CC(=O)O)cc1NC1CCC(C(=O)O)CC1 (stereo not drawn) [example 198, 4-({2-[bis(2-methylpropyl)amino]-5-(1-carboxypropan-2-yl)phenyl}amino)cyclo-hexane-1-carboxylic acid]	<5
6.31	CC(=O)Nc1ccc(Nc2cc(C(C)CC(=O)O)ccc2N(CC(C)C)CC(C)C)nc1 (stereo not drawn) [example 199, 3-{4-[bis(2-methylpropyl)amino]-3-[(5-acetamidopyridin-2-yl)amino]phenyl}butanoic acid]	<5
> 10	CC(C)CN(CC(C)C)c1ccc(C(C)CC(=O)O)cc1Nc1ccc(NS(C)(=O)=O)cn1 (stereo not drawn) [example 200, 3-{4-[bis(2-methylpropyl)amino]-3-[(5-methanesulfonamido-pyridin-2-yl)amino]phenyl}butanoic acid]	<5
> 10	CC(C)CN(c1ccc(C(C)OCC(=O)O)cc1Nc1ccc(C(N)=O)cn1)C1CCCCC1 (stereo not drawn) [example 201, 2-(1-{3-[(5-carbamoylpyridin-2-yl)amino]-4-[cyclohexyl(2-methylpropyl)amino]phenyl}ethoxy)acetic acid]	<5
3.16	CC(C)CN(CC(C)C)c1ccc(C(C)CC(=O)O)cc1Nc1ccc(C(N)=O)cn1 (stereo not drawn) [example 204, 3-{4-[bis(2-methylpropyl)amino]-3-[(5-carbamoylpyridin-2-yl)amino]phenyl}butanoic acid]	<5
> 10	CC(C)CN(c1ccc(C(C)CC(=O)O)cc1Nc1nc(Cl)ns1)C1COC1 (stereo not drawn) [example 205, 3-{3-[(3-chloro-1,2,4-thiadiazol-5-yl)amino]-4-[{2-methylpropyl)(oxetan-3-yl)amino]phenyl}butanoic acid]	<5
0.631	CC(C)CN(CC(C)C)c1ccc(C(C)CC(=O)O)cc1Nc1cnc(CO)s1 (stereo not drawn) [example 207, 3-{4-[bis(2-methylpropyl)amino]-3-{[2-(hydroxymethyl)-1,3-thiazol-5-yl]amino}phenyl}butanoic acid]	<5
1.58	CC(C)CN(CC(C)C)c1ccc(C(C)CC(=O)O)cc1Nc1nnc(N)s1 (stereo not drawn) [example 208, 3-{3-[(5-amino-1,3,4-thiadiazol-2-yl)amino]-4-[bis(2-methylpropyl)amino]phenyl}butanoic acid]	<5
